Measured values: PubChem BioAssay AID256 (DTP/NCI, 2004)
Several values for one entry are separate records, joined by “and”; a condition that tells them apart may be missing. Identical values can stand only once. Inconclusive results and toxic doses are left out. Rule for the calls: active = survival T/C of 150% or more; inactive = T/C below 125% in these data.

Test system: CD2F1 mice, L1210 leukemia ip, survival T/C
Assay: NCI In Vivo Anticancer Drug Screen. Data for tumor model L1210 Leukemia (intraperitoneal) in CD2F1 (CDF1) mice
Settings: higher = longer survival
Method in brief: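 Vehicle-treated tumor-bearing mice served as controls (C) for compound-treated mice (T). Reported figure is T divided by C.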

[1] = endpoint: mean survival time, dose: 100.0 mg/kg/injection, schedule: Q01DX009 (ip), vehicle: saline with Tween-80
[2] = endpoint: mean survival time, dose: 200.0 mg/kg/injection, schedule: Q01DX009 (ip), vehicle: saline with Tween-80
[3] = endpoint: mean survival time, dose: 100.0 mg/kg/injection, schedule: Q04DX003 (ip), vehicle: saline with Tween-80
[4] = endpoint: mean survival time, dose: 200.0 mg/kg/injection, schedule: Q04DX003 (ip), vehicle: saline with Tween-80
[5] = endpoint: mean survival time, dose: 400.0 mg/kg/injection, schedule: Q04DX003 (ip), vehicle: saline with Tween-80
[6] = endpoint: mean survival time, dose: 25.0 mg/kg/injection, schedule: Q04DX003 (ip), vehicle: other
[7] = endpoint: mean survival time, dose: 50.0 mg/kg/injection, schedule: Q04DX003 (ip), vehicle: other
[8] = endpoint: mean survival time, dose: 100.0 mg/kg/injection, schedule: Q04DX003 (ip), vehicle: other

Measured: T/C

O=C1NC(=O)C(c2ccccc2)(C2CCCC2)N1 (configuration not stated)
inactive: endpoint: mean survival time, dose: 50.0 mg/kg/injection, schedule: Q04DX003 (ip), vehicle: Klucel (hydroxypropylcellulose) (HPC) 104 % of control | endpoint: mean survival time, dose: 100.0 mg/kg/injection, schedule: Q04DX003 (ip), vehicle: Klucel (hydroxypropylcellulose) (HPC) 98 % of control | endpoint: mean survival time, dose: 200.0 mg/kg/injection, schedule: Q04DX003 (ip), vehicle: Klucel (hydroxypropylcellulose) (HPC) 95 % of control

Nc1ncnc2nc(-c3ccc(Cc4ccccc4)cc3)[nH]c12
inactive: endpoint: mean survival time, dose: 0.63 mg/kg/injection, schedule: Q01DX009 (ip), vehicle: saline 96 % of control | endpoint: mean survival time, dose: 1.25 mg/kg/injection, schedule: Q01DX009 (ip), vehicle: saline 95 % of control | endpoint: mean survival time, dose: 2.5 mg/kg/injection, schedule: Q01DX009 (ip), vehicle: saline 95 % of control

C=CCOCC(O)CNc1ccccc1 (configuration not stated)
inactive: endpoint: mean survival time, dose: 50.0 mg/kg/injection, schedule: Q01DX009 (ip), vehicle: saline with Tween-80 101 % of control | [1] 101 % of control | [2] 96 % of control

O=C(C[n+]1cccc(C(=O)Nc2ccccc2)c1)NCc1ccccc1
inactive: endpoint: mean survival time, dose: 100.0 mg/kg/injection, schedule: Q04DX003 (ip), vehicle: saline 100 % of control | endpoint: mean survival time, dose: 200.0 mg/kg/injection, schedule: Q04DX003 (ip), vehicle: saline 96 % of control | endpoint: mean survival time, dose: 400.0 mg/kg/injection, schedule: Q04DX003 (ip), vehicle: saline 96 % of control

CC(C)(C)COC(=O)Nc1cccc(O)c1
inactive: [3] 96 % of control | [4] 95 % of control | [5] 102 % of control

CC(Oc1ccc(Br)cc1Br)C(=O)O (configuration not stated)
inactive: [1] 97 % of control | [2] 94 % of control | endpoint: mean survival time, dose: 400.0 mg/kg/injection, schedule: Q01DX009 (ip), vehicle: saline with Tween-80 94 % of control

COC(=O)CC1(O)C=CC(=O)C=C1
inactive: endpoint: mean survival time, dose: 0.75 mg/kg/injection, schedule: Q01DX009 (ip), vehicle: Klucel (hydroxypropylcellulose) (HPC) 104 % of control | endpoint: mean survival time, dose: 1.5 mg/kg/injection, schedule: Q01DX009 (ip), vehicle: Klucel (hydroxypropylcellulose) (HPC) 98 % of control | endpoint: mean survival time, dose: 3.0 mg/kg/injection, schedule: Q01DX009 (ip), vehicle: Klucel (hydroxypropylcellulose) (HPC) 95 % of control | endpoint: mean survival time, dose: 6.0 mg/kg/injection, schedule: Q01DX009 (ip), vehicle: Klucel (hydroxypropylcellulose) (HPC) 92 % of control | endpoint: mean survival time, dose: 12.0 mg/kg/injection, schedule: Q01DX009 (ip), vehicle: Klucel (hydroxypropylcellulose) (HPC) 95 % of control

Oc1ccc(Br)cc1/C=N/c1nc(-c2ccccc2)cs1.Oc1ccc(Br)cc1/C=N/c1nc(-c2ccccc2)cs1.[Co]
inactive: endpoint: mean survival time, dose: 100.0 mg/kg/injection, schedule: Q01DX001 (ip), vehicle: saline 100 % of control | endpoint: mean survival time, dose: 200.0 mg/kg/injection, schedule: Q01DX001 (ip), vehicle: saline 89 % of control

CN(N=O)P(=O)(Nc1ccccc1)Nc1ccccc1
inactive: [6] 101 % of control | [7] 98 % of control | [8] 103 % of control

[I][Pt+2][I].[NH-]c1ccccc1F.[NH-]c1ccccc1F
inactive: endpoint: mean survival time, dose: 3.13 mg/kg/injection, schedule: Q04DX003 (ip), vehicle: distilled water + Tween-80 98 % of control | endpoint: mean survival time, dose: 6.25 mg/kg/injection, schedule: Q04DX003 (ip), vehicle: distilled water + Tween-80 101 % of control | endpoint: mean survival time, dose: 12.5 mg/kg/injection, schedule: Q04DX003 (ip), vehicle: distilled water + Tween-80 98 % of control | endpoint: mean survival time, dose: 25.0 mg/kg/injection, schedule: Q04DX003 (ip), vehicle: distilled water + Tween-80 101 % of control | endpoint: mean survival time, dose: 50.0 mg/kg/injection, schedule: Q04DX003 (ip), vehicle: distilled water + Tween-80 102 % of control | endpoint: mean survival time, dose: 100.0 mg/kg/injection, schedule: Q04DX003 (ip), vehicle: distilled water + Tween-80 98 % of control | endpoint: mean survival time, dose: 200.0 mg/kg/injection, schedule: Q04DX003 (ip), vehicle: distilled water + Tween-80 101 % of control

COC(=O)CCNc1ccccc1
inactive: endpoint: mean survival time, dose: 100.0 mg/kg/injection, schedule: Q01DX001 (ip), vehicle: Klucel (hydroxypropylcellulose) (HPC) 101 % of control | [3] 100 % of control | endpoint: mean survival time, dose: 200.0 mg/kg/injection, schedule: Q01DX001 (ip), vehicle: Klucel (hydroxypropylcellulose) (HPC) 101 % of control | [4] 96 % of control | endpoint: mean survival time, dose: 400.0 mg/kg/injection, schedule: Q01DX001 (ip), vehicle: Klucel (hydroxypropylcellulose) (HPC) 96 % of control | [5] 96 % of control

CN(N=O)C(=O)N[C@@H](C=O)[C@@H](O)[C@H](O)[C@H](O)CO
inactive: endpoint: mean survival time, dose: 12.5 mg/kg/injection, schedule: Q01DX005 (ip), vehicle: other 104 % of control | endpoint: mean survival time, dose: 19.6 mg/kg/injection, schedule: Q01DX009 (ip), vehicle: other 104 % of control | endpoint: mean survival time, dose: 25.0 mg/kg/injection, schedule: Q01DX001 (ip), vehicle: other 102 % of control and 103 % of control | endpoint: mean survival time, dose: 25.0 mg/kg/injection, schedule: Q01DX005 (ip), vehicle: other 112 % of control | [6] 102 % of control | endpoint: mean survival time, dose: 29.3 mg/kg/injection, schedule: Q01DX009 (ip), vehicle: other 107 % of control | endpoint: mean survival time, dose: 32.0 mg/kg/injection, schedule: Q03HX008 (ip), vehicle: other 98 % of control | endpoint: mean survival time, dose: 32.0 mg/kg/injection, schedule: Q03HX016 (ip), vehicle: other 98 % of control | endpoint: mean survival time, dose: 37.5 mg/kg/injection, schedule: Q01DX001 (ip), vehicle: other 107 % of control | endpoint: mean survival time, dose: 44.0 mg/kg/injection, schedule: Q01DX009 (ip), vehicle: other 117 % of control | endpoint: mean survival time, dose: 50.0 mg/kg/injection, schedule: Q01DX001 (ip), vehicle: other 94 % of control and 105 % of control | endpoint: mean survival time, dose: 50.0 mg/kg/injection, schedule: Q01DX005 (ip), vehicle: other 117 % of control | [7] 106 % of control | endpoint: mean survival time, dose: 64.0 mg/kg/injection, schedule: Q03HX008 (ip), vehicle: other 96 % of control | endpoint: mean survival time, dose: 64.0 mg/kg/injection, schedule: Q03HX016 (ip), vehicle: other 95 % of control | endpoint: mean survival time, dose: 75.0 mg/kg/injection, schedule: Q01DX001 (ip), vehicle: other 98 % of control | endpoint: mean survival time, dose: 100.0 mg/kg/injection, schedule: Q01DX001 (ip), vehicle: other 113 % of control and 103 % of control | endpoint: mean survival time, dose: 100.0 mg/kg/injection, schedule: Q01DX005 (ip), vehicle: other 116 % of control | endpoint: mean survival time, dose: 100.0 mg/kg/injection, schedule: Q01DX009 (ip), vehicle: saline 111 % of control | [8] 109 % of control | endpoint: mean survival time, dose: 128.0 mg/kg/injection, schedule: Q03HX008 (ip), vehicle: other 102 % of control | endpoint: mean survival time, dose: 128.0 mg/kg/injection, schedule: Q03HX016 (ip), vehicle: other 108 % of control | endpoint: mean survival time, dose: 150.0 mg/kg/injection, schedule: Q01DX001 (ip), vehicle: other 104 % of control | endpoint: mean survival time, dose: 200.0 mg/kg/injection, schedule: Q01DX001 (ip), vehicle: other 118 % of control and 124 % of control and 106 % of control | endpoint: mean survival time, dose: 200.0 mg/kg/injection, schedule: Q01DX009 (ip), vehicle: saline 103 % of control | endpoint: mean survival time, dose: 200.0 mg/kg/injection, schedule: Q04DX003 (ip), vehicle: other 120 % of control | endpoint: mean survival time, dose: 250.0 mg/kg/injection, schedule: Q01DX001 (ip), vehicle: other 109 % of control | endpoint: mean survival time, dose: 256.0 mg/kg/injection, schedule: Q03HX008 (ip), vehicle: other 108 % of control | endpoint: mean survival time, dose: 256.0 mg/kg/injection, schedule: Q03HX016 (ip), vehicle: other 113 % of control | endpoint: mean survival time, dose: 300.0 mg/kg/injection, schedule: Q01DX001 (ip), vehicle: other 119 % of control and 110 % of control | endpoint: mean survival time, dose: 350.0 mg/kg/injection, schedule: Q01DX001 (ip), vehicle: other 113 % of control | endpoint: mean survival time, dose: 400.0 mg/kg/injection, schedule: Q01DX001 (ip), vehicle: other 117 % of control and 102 % of control | endpoint: median survival time, dose: 21.6 mg/kg/injection, schedule: Q01DX009 (ip), vehicle: saline 100 % of control | endpoint: median survival time, dose: 36.0 mg/kg/injection, schedule: Q01DX009 (ip), vehicle: saline 102 % of control | endpoint: median survival time, dose: 60.0 mg/kg/injection, schedule: Q01DX009 (ip), vehicle: saline 109 % of control | endpoint: median survival time, dose: 100.0 mg/kg/injection, schedule: Q01DX009 (ip), vehicle: saline 110 % of control

O=C(O)CC1C(=O)OC2C3COC(=O)c4cc(O)c(O)c(O)c4-c4c(cc(O)c(O)c4O)C(=O)OC2C(OC(=O)c2cc(O)c(O)c4c2C1C(O)C(=O)O4)C(OC(=O)c1cc(O)c(O)c(O)c1)O3 (configuration not stated)
inactive: endpoint: median survival time, dose: 3.12 mg/kg/injection, schedule: Q01DX009 (ip), vehicle: saline 102 % of control | endpoint: median survival time, dose: 6.25 mg/kg/injection, schedule: Q01DX009 (ip), vehicle: saline 98 % of control | endpoint: median survival time, dose: 12.5 mg/kg/injection, schedule: Q01DX009 (ip), vehicle: saline 101 % of control | endpoint: median survival time, dose: 25.0 mg/kg/injection, schedule: Q01DX009 (ip), vehicle: saline 98 % of control | endpoint: median survival time, dose: 50.0 mg/kg/injection, schedule: Q01DX009 (ip), vehicle: saline 100 % of control
